# According to patent publication US20240279218A1 (Hoffmann-La Roche Inc., priority 2016, published 2024):
# Experiments:
# h-GABA-A α5β3γ2 [1] = biological target: T1, h-GABA-A α5β3γ2 (Homo sapiens (Human), UniProt P18507+P31644); test: Two-electrode voltage clamp electrophysiology in Xenopus oocytes expressing GABAA receptors, modulation of GABA EC20 current; type: cell-based; settings: Xenopus oocytes; for Efficacy (GABA) %: % modulation of GABA EC20 = 100*(Fold increase−1); for Fold increase h-GABA-A α5β3γ2 oocyte: GABA EC20, test compound at approx. 30 fold its Ki
# In short: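 Values are % modulation of an EC20 GABA response, derived point by point from the ratio of compound-exposed versus control current traces (extremum taken, 100×(fold−1)). Recordings used oocytes injected with human α5, β3, γ2 mRNA, clamped at −80 mV at room temperature, at least 3 oocytes each.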
# h-GABA-A α5β3γ2 [2] = biological target: T1, h-GABA-A α5β3γ2; test: [3H]flumazenil competition binding assay, membranes of HEK293 cells expressing human GABAA receptors; settings: displacement of [3H]flumazenil 0.5 nM, HEK293 cells expressing human receptors, mean of two determinations; read-out: Ki h-GABA-A α5β3γ2
# In short: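 Membranes were prepared from HEK293 cells with transient human α5β3γ2 expression and assayed in Krebs-tris, pH 7.5. Bound radioactivity measured on filters by liquid scintillation.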
SMILES,Efficacy (GABA) % (h-GABA-A α5β3γ2 [1]) [%],Fold increase h-GABA-A α5β3γ2 oocyte (h-GABA-A α5β3γ2 [1]),Ki (h-GABA-A α5β3γ2 [2]) [nM]
"CCO[C@H]1C[C@H](NC(=O)c2ccc(OCc3c(-c4ccc(C)nc4)noc3C)nn2)C1 [Example 172, trans-N-(3-ethoxycyclobutyl)-6-((5-methyl-3-(6-methylpyridin-3-yl)isoxazol-4-yl)methoxy)pyridazine-3-carboxamide]",65,1.65,8.8
"Cc1ccc(-c2noc(C)c2COc2ccc(C(=O)N[C@H]3C[C@@H](OC(F)F)C3)nn2)cn1 [Example 173, cis-N-(3-(difluoromethoxy)cyclobutyl)-6-((5-methyl-3-(6-methylpyridin-3-yl)isoxazol-4-yl)methoxy)pyridazine-3-carboxamide]",68,1.68,15.6
"Cc1ccc(-c2noc(C)c2COc2ccc(C(=O)N[C@H]3C[C@H](OC(F)F)C3)nn2)cn1 [Example 174, trans-N-(3-(difluoromethoxy)cyclobutyl)-6-((5-methyl-3-(6-methylpyridin-3-yl)isoxazol-4-yl)methoxy)pyridazine-3-carboxamide]",55,1.55,8.8
"Cc1ccc(-c2noc(C)c2COc2ccc(C(=O)N[C@H]3C[C@H](OC4CC4)C3)nn2)cn1 [Example 175, trans-N-(3-cyclopropoxycyclobutyl)-6-((5-methyl-3-(6-methylpyridin-3-yl)isoxazol-4-yl)methoxy)pyridazine-3-carboxamide]",82,1.82,10.1
"Cc1ccc(-c2noc(C)c2COc2ccc(C(=O)N[C@H]3C[C@@H](OC4CC4)C3)nn2)cn1 [Example 176, cis-N-(3-cyclopropoxycyclobutyl)-6-((5-methyl-3-(6-methylpyridin-3-yl)isoxazol-4-yl)methoxy)pyridazine-3-carboxamide]",64,1.64,12.7
CC1(NC(=O)c2ccc(OCc3c(-c4ccc(Cl)nc4)noc3C3CC3)nn2)COC1 [Example 177],109,2.09,39.7
"O=C(NC1CC2(COC2)C1)c1ccc(OCc2c(-c3ccc(Cl)nc3)noc2C2CC2)nn1 [Example 178, 6-((3-(6-chloropyridin-3-yl)-5-cyclopropylisoxazol-4-yl)methoxy)-N-(2-oxaspiro[3.3]heptan-6-yl)pyridazine-3-carboxamide]",73,1.73,42.9
Cc1ccc(-c2noc(C3CC3)c2COc2ccc(C(=O)NC3(C)COC3)nn2)cn1 [Example 180],173,2.73,32.6
"Cc1ccc(-c2noc(C3CC3)c2COc2ccc(C(=O)NC3CC4(COC4)C3)nn2)cn1 [Example 181, 6-((5-cyclopropyl-3-(6-methylpyridin-3-yl)isoxazol-4-yl)methoxy)-N-(2-oxaspiro[3.3]heptan-6-yl)pyridazine-3-carboxamide]",147,2.47,68
Cc1ccc(-c2noc(C3CC3)c2COc2ccc(C(=O)N[C@H]3CCOC3)nn2)cn1 [Example 182],141,2.41,59.6
"Cc1ccc(-c2noc(C3CC3)c2COc2ccc(C(=O)NC3CCOCC3)nn2)cn1 [Example 183, 6-((5-cyclopropyl-3-(6-methylpyridin-3-yl)isoxazol-4-yl)methoxy)-N-(tetrahydropyran-4-yl)pyridazine-3-carboxamide]",213,3.13,56.7
"Cc1ccc(-c2noc(CF)c2COc2ccc(C(=O)NC3(C(F)(F)F)CC3)nn2)cn1 [Example 184, 6-((5-(fluoromethyl)-3-(6-methylpyridin-3-yl)isoxazol-4-yl)methoxy)-N-(1-(trifluoromethyl)cyclopropyl)pyridazine-3-carboxamide]",96,1.96,51.2
"Cc1onc(-c2ccc(C(F)(F)F)nc2)c1COc1ccc(C(=O)NC2CCOCC2)nn1 [Example 185, 6-((5-methyl-3-(6-(trifluoromethyl)pyridin-3-yl)isoxazol-4-yl)methoxy)-N-(tetrahydropyran-4-yl)pyridazine-3-carboxamide]",124,2.24,70.7
"Cc1ccc(-c2noc(C)c2COc2ccc(C(=O)N[C@H]3CC4CCC3O4)nn2)cn1 (stereo partly drawn) [Example 186, N-((2S)-7-oxabicyclo[2.2.1]heptan-2-yl)-6-((5-methyl-3-(6-methylpyridin-3-yl)isoxazol-4-yl)methoxy)pyridazine-3-carboxamide]",72,1.72,16.6
"CCO[C@@H]1CC[C@@H](NC(=O)c2ccc(OCc3c(-c4ccc(C)nc4)noc3C)nn2)C1 [Example 190, N-((1R,3R)-3-ethoxycyclopentyl)-6-((5-methyl-3-(6-methylpyridin-3-yl)isoxazol-4-yl)methoxy)pyridazine-3-carboxamide]",63,1.63,12.7
"Cc1ccc(-c2noc(C)c2COc2ccc(C(=O)N[C@@H]3CC[C@@H](OCC(F)F)C3)nn2)cn1 [Example 191, N-((1R,3R)-3-(2,2-difluoroethoxy)cyclopentyl)-6-((5-methyl-3-(6-methylpyridin-3-yl)isoxazol-4-yl)methoxy)pyridazine-3-carboxamide]",60,1.6,11.2
"Cc1ccc(-c2noc(CF)c2COc2ccc(C(=O)NC3CCOCC3)nn2)nn1 [Example 192, 6-((5-(fluoromethyl)-3-(6-methylpyridazin-3-yl)isoxazol-4-yl)methoxy)-N-(tetrahydropyran-4-yl)pyridazine-3-carboxamide]",56,1.56,3
"Cc1ccc(-c2noc(C)c2COc2ccc(C(=O)NC3CCOCC3)nn2)nn1 [Example 193, 6-((5-methyl-3-(6-methylpyridazin-3-yl)isoxazol-4-yl)methoxy)-N-(tetrahydropyran-4-yl)pyridazine-3-carboxamide]",64,1.64,1
